Where a chain is given by its changes, count along the chain named. Like-named read-outs stand apart in the source and are kept apart here. Starred links: 1 amine or outer side, 2 acyl side, 3 side chain; linkers in the order of their positions; H or OH if unused. Non-standard residues stand in square brackets, D forms with d. Groups on a side chain read outwards from the residue. No end group written: not given here. *: point of attachment. C20 diacid = O=C(O)CCCCCCCCCCCCCCCCCCC(=O)*; C18 diacid = O=C(O)CCCCCCCCCCCCCCCCC(=O)*; γGlu = O=C(O)[C@H](CCC(=O)[*:2])N[*:1]; εLys = N[C@@H](CCCCN[*:1])C(=O)[*:2]; AEEA = NCCOCCOCC(=O)O; Aib = CC(C)(N)C(=O)O
B1: Compound 170 (peptide)
peptide: YXEGTFTSDYSIXLEKQAQXAFVQWLIKGGPSSGASLRHYYNWLTRQRY
modifications: Aib at 2, 13, 20; K28 side chain: C18DA-gGlu-gGlu-gGlu-gGlu-gGlu-gGlu-eLys; C-terminal NH2
B2: Compound 172 (peptide)
peptide: B1 peptide with Y10L, Q24E
modifications: Aib at 2, 13, 20; K28 side chain: C20DA-gGlu-gGlu-gGlu-gGlu-gGlu-gGlu-eLys; C-terminal NH2

What was measured:
[1] = target: T1, hGLP1R (Homo sapiens, UniProt P43220); assay: hGLP1R CreLuc reporter gene assay in 0.5% and 100% plasma; assay type: cell-based; settings: CreLuc reporter gene assay
T1 construct: expressed in transfected cells; host or cells: HEK-293 cells carrying a CRE-luciferase reporter gene
In short: (§1)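 HEK-293 cells co-expressing GLP-1 or NPY2 receptor and CHO cells expressing GIP receptor, each carrying a CRE-driven luciferase reporter, were stimulated with peptides for 4 hours at 37 °C. Luminescence was read after Bright-Glo addition. EC50 came from 8-point, four-decade curves fitted by variable-slope non-linear regression.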

[2] = target: T2, hGIPR (Homo sapiens, UniProt P48546); assay: hGIPR CreLuc reporter gene assay in 0.5% and 100% plasma; assay type: cell-based; settings: CreLuc reporter gene assay
T2 construct: expressed in transfected cells; host or cells: CHO cells carrying a CRE-luciferase reporter gene
T2 sequence (P48546 22-466): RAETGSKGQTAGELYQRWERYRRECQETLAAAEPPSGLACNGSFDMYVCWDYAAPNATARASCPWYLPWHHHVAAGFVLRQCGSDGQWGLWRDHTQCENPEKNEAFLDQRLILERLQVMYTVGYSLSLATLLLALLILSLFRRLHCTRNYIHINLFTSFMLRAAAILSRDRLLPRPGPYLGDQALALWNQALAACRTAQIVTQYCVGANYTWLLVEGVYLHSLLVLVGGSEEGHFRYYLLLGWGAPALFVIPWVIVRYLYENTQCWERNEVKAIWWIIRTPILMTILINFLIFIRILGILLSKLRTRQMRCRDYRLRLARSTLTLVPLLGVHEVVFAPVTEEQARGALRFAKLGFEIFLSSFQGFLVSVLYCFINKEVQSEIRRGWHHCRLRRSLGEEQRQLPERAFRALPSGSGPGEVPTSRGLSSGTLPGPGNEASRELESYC
In short: as §1

[3] = target: T3, hNPY2R (Homo sapiens, UniProt P49146); assay: hNPY2R CreLuc reporter gene assay in 0.5% and 100% plasma; assay type: cell-based; settings: CreLuc reporter gene assay
T3 construct: expressed in transfected cells; host or cells: HEK-293 cells carrying a CRE-luciferase reporter gene
T3 sequence (P49146 1-381): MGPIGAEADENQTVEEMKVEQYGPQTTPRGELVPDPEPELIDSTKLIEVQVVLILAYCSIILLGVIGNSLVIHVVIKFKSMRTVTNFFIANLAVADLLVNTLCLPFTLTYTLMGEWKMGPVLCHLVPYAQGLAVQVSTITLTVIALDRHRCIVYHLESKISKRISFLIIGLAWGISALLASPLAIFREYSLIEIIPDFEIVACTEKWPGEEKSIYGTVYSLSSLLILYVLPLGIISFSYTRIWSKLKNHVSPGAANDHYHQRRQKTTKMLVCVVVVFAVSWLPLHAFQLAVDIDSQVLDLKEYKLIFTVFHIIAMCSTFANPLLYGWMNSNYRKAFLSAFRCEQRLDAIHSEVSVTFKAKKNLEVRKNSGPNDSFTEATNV
In short: as §1

[4] = target: human GLP-1 receptor (human, UniProt P43220 24-463); assay: cell-based or functional assay
[5] = target: T4, human GIP receptor (human, UniProt P48546 22-466); assay: cell-based or functional assay
T4 sequence (looked up): T2 sequence (P48546 22-466)

[6] = target: T5, human neuropeptide Y2 receptor (human, UniProt P49146 1-381); assay: cell-based or functional assay
T5 sequence (looked up): T3 sequence (P49146 1-381)

[7] = 0.5% human plasma, read-out: hGLP1R 0.5% hP
[8] = 0.5% human plasma, read-out: hGIPR 0.5% hP
[9] = 100% human plasma, read-out: hGIPR 100% hP
[10] = 0.5% human plasma, read-out: hNPY2R 0.5% hP
[11] = 100% human plasma, read-out: hNPY2R 100% hP
[12] = 100% human plasma, read-out: hGLP1R 100% hP

T1 sequence (P43220 24-463): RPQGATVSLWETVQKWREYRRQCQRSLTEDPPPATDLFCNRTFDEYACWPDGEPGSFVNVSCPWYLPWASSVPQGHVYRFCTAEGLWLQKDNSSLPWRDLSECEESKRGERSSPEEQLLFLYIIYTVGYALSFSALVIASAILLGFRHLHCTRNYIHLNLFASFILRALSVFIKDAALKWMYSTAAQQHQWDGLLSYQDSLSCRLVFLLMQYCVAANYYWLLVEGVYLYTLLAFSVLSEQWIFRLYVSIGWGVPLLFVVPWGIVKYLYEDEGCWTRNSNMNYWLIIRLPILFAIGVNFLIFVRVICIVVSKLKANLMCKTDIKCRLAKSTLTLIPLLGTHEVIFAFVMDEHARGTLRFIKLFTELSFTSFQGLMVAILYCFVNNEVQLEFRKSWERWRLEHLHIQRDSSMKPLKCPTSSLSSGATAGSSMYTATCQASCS

Molecule | EC50 [1, 7] [nM] | EC50 [2, 8] [nM] | EC50 [2, 9] [nM] | EC50 [3, 10] [nM] | EC50 [3, 11] [nM] | EC50 [1, 12] [nM] | EC50 CreLuc hGLP1R 0.5% hP [4] [nM] | EC50 CreLuc hGLP1R 100% hP [4] [nM] | EC50 CreLuc hGIPR 0.5% hP [5] [nM] | EC50 CreLuc hGIPR 100% hP [5] [nM] | EC50 CreLuc hNPY2R 0.5% hP [6] [nM] | EC50 CreLuc hNPY2R 100% hP [6] [nM]
H-Y[Aib]EGTFTSDYSI[Aib]LEKQAQ[Aib]AFIEWLIK([γGlu-γGlu-γGlu-γGlu-C18 diacid])GGPSEGASLRHYYNWLTRQRY-NH2 [Compound 247, Y-Aib-E-G-T-F-T-S-D-Y-S-I-Aib-L-E-K-Q-A-Q-Aib-A-F-I-E-W-L-I-K(1,3)-GGPSEGASLRHYYNWLTRQRY-NH2.C18DA-gGlu-gGlu-gGlu-gGlu(1,2)] | 0.11 | 0.26 | 1.57 | 11.9 | 64.7 | – | – | – | – | – | – | –
H-Y[Aib]EGTFTSDYSI[Aib]LEEQAQ[Aib]AFVEWLIK([εLys-AEEA-AEEA-γGlu-γGlu-γGlu-γGlu-C20 diacid])GGPSSGASLRHYYNWLTRQRY-NH2 [Compound 100, Y-Aib-E-G-T-F-T-S-D-Y-S-I-Aib-L-E-E-Q-A-Q-Aib-A-F-V-E-W-L-I-K(1,3)-GGPSSGASLRHYYNWLTRQRY-NH2.C20DA-gGlu-gGlu-glu-gGlu-OEG-OEG-eLys(1,2)] | 0.12 | 0.1 | 0.87 | 11.2 | – | 2.21 | – | – | – | – | – | –
H-Y[Aib]EGTFTSDYSI[Aib]LEKQAQ[Aib]AFVQWLIK([γGlu-γGlu-γGlu-γGlu-γGlu-C18 diacid])GGPESGASLRHYYNWLTRQRY-NH2 [Compound 53, Y-Aib-E-G-T-F-T-S-D-Y-S-I-Aib-L-E-K-Q-A-Q-Aib-A-F-V-Q-W-L-I-K(1,3)-GGPESGASLRHYYNWLTRQRY-NH2.C18DA-gGlu-gGlu-gGlu-gGlu-gGlu(1,2)] | 0.09 | 0.13 | 1.38 | 13.2 | 50.6 | – | – | – | – | – | – | –
H-Y[Aib]EGTFTSDYSI[Aib]LEKQAQ[Aib]AFIEWLIK([AEEA-AEEA-γGlu-γGlu-γGlu-γGlu-C20 diacid])GGPSEGASLRHYYNWLTRQRY-NH2 [Compound 231, Y-Aib-E-G-T-F-T-S-D-Y-S-I-Aib-L-E-K-Q-A-Q-Aib-A-F-I-E-W-L-I-K(1,3)-GGPSEGASLRHYYNWLTRQRY-NH2.C20DA-gGlu-gGlu-gGlu-gGlu-OEG-OEG(1,2)] | 0.14 | 0.33 | 1.43 | 19.2 | – | – | – | – | – | – | – | –
H-Y[Aib]EGTFTSDYSI[Aib]LEKQAQ[Aib]AFVQWLIK([εLys-γGlu-γGlu-γGlu-γGlu-γGlu-γGlu-C20 diacid])GGPEEGASLRHYYNWLTRQRY-NH2 [Compound 89, Y-Aib-E-G-T-F-T-S-D-Y-S-I-Aib-L-E-K-Q-A-Q-Aib-A-F-V-Q-W-L-I-K(1,3)-GGPEEGASLRHYYNWLTRQRY-NH2.C20DA-gGlu-gGlu-gGlu-gGlu-gGlu-gGlu-eLys(1,2)] | 0.25 | 1.01 | – | 14.8 | – | – | – | – | – | – | – | –
H-Y[Aib]EGTFTSDYSI[Aib]LEKQAE[Aib]AFVQWLIK([εLys-γGlu-γGlu-γGlu-γGlu-γGlu-C18 diacid])GGPSEGASLRHYYNWLTRQRY-NH2 [Compound 138, Y-Aib-E-G-T-F-T-S-D-Y-S-I-Aib-L-E-K-Q-A-E-Aib-A-F-V-Q-W-L-I-K(1,3)-GGPSEGASLRHYYNWLTRQRY-NH2.C18DA-gGlu-gGlu-gGlu-gGlu-gGlu-eLys(1,2)] | 0.19 | 0.13 | 0.81 | 18.3 | – | – | – | – | – | – | – | –
H-Y[Aib]EGTFTSDYSI[Aib]LEKQAQ[Aib]AFVQWLIK([AEEA-AEEA-γGlu-γGlu-γGlu-γGlu-γGlu-C20 diacid])GGPSSGASLRHYYNWLTRQRY-NH2 [Compound 112, Y-Aib-E-G-T-F-T-S-D-Y-S-I-Aib-L-E-K-Q-A-Q-Aib-A-F-V-Q-W-L-I-K(1,3)-GGPSSGASLRHYYNWLTRQRY-NH2.C20DA-gGlu-gGlu-gGlu-gGlu-gGlu-OEG-OEG(1,2)] | 0.06 | 0.19 | 0.83 | – | 27.6 | 1.7 | – | – | – | – | – | –
H-Y[Aib]EGTFTSDYSI[Aib]LEKQAQ[Aib]AFVEWLIK([εLys-γGlu-γGlu-γGlu-γGlu-γGlu-γGlu-C20 diacid])GGPSSGASLRHYYNL[Aib]TRQRY-NH2 [Compound 79, Y-Aib-E-G-T-F-T-S-D-Y-S-I-Aib-L-E-K-Q-A-Q-Aib-A-F-V-E-W-L-I-K(1,3)-G-G-P-S-S-G-A-S-L-R-H-Y-Y-N-L-Aib-T-R-Q-R-Y-NH2.C20DA-gGlu-gGlu-gGlu-gGlu-gGlu-gGlu-eLys(1,2)] | 0.11 | 0.29 | 1.86 | 87.6 | – | – | – | – | – | – | – | –
H-Y[Aib]EGTFTSDYSI[Aib]LEKQAQ[Aib]AFVEWLIK([AEEA-AEEA-γGlu-γGlu-γGlu-γGlu-C20 diacid])GGPSEGASLRHYYNWLTRQRY-NH2 [Compound 287, Y-Aib-E-G-T-F-T-S-D-Y-S-I-Aib-L-E-K-Q-A-Q-Aib-A-F-V-E-W-L-I-K(1,3)-GGPSEGASLRHYYNWLTRQRY-NH2.C20DA-gGlu-gGlu-gGlu-gGlu-OEG-OEG(1,2)] | 0.27 | 0.34 | – | 13.3 | 45.9 | – | – | – | – | – | – | –
Y[Aib]EGTFTSDYSI[Aib]LEKQAQ[Aib]AFVQWLIK([εLys-γGlu-γGlu-γGlu-γGlu-γGlu-C20 diacid])GGPSEPASLRHYYNWLTRQRY-NH2 [Compound 169] | – | – | – | – | – | – | 0.13 | 7.3 | 0.26 | 3.15 | 10.3 | 50.3
B1 | – | – | – | – | – | – | 0.09 | 0.98 | 0.24 | 1.15 | 19.2 | 33.2
B2 | – | – | – | – | – | – | 0.07 | 2 | 0.21 | 1.83 | 20.2 | 86.1
Y[Aib]EGTFTSDYSI[Aib]LEKQAQ[Aib]EFVEWLIK([AEEA-AEEA-γGlu-γGlu-γGlu-C18 diacid])GGPSSGASLRHYYNWLTRQRY-NH2 [Compound 171] | – | – | – | – | – | – | 0.27 | 4.17 | 0.2 | 0.83 | 7.51 | 30.4
Y[Aib]EGTFTSDYSI[Aib]LEKQAQ[Aib]EFVEWLIK([εLys-γGlu-γGlu-γGlu-γGlu-γGlu-γGlu-γGlu-C20 diacid])GGPSSGASLRHYYNWLTRQRY-NH2 [Compound 88] | – | – | – | – | – | – | 1.12 | 7.18 | 0.53 | 1.58 | 20.4 | 45.4

Reference: patent US20240247080A1, “GLP1/GIP/NPY2 RECEPTOR TRIPLE AGONISTS” (Boehringer Ingelheim International GmbH, priority 2022, published 2024)
